Assay [1] has as its system TGF-β signaling (p-SMAD-3 Ser423/425). In words: AlphaScreen SureFire SMAD3 (p-Ser423/425) assay, TGF-β stimulated (TGF-β pSMAD (MPC-11)). The assay is classed as cell-based.
In assay [2] the test system is GDF8 signaling (p-SMAD-3 Ser423/425). In words: AlphaScreen SureFire SMAD3 (p-Ser423/425) assay, GDF8 stimulated (GDF pSMAD (MPC11)). The format is cell-based. The note with it: Mus musculus, MPC-11, inhibition of GDF8 signaling. For orientation: In Alpha technology, singlet oxygen from a donor bead excites a nearby acceptor bead.
The target of the next assay is HIS-TGFβR1 T204D (Homo sapiens (Human), UniProt P36897, T204D). Put plainly: HTRF probe displacement assay, HIS-TGFβR1 T204D. The format is binding. The conditions noted are these: 1 nM HIS-TGFβR1 T204D, 1 hour at room temperature, read-out: TGFBR1T204D IC50. The procedure: (§1) Compounds were dissolved at 10 mM in dimethylsulfoxide (DMSO) and evaluated at eleven concentrations. IC50 values were derived by non-linear regression analysis.
Background: TR-FRET usually uses a lanthanide donor and a delayed reading to cut background.

Another assay addresses HIS-TGFβR2 WT (Homo sapiens (Human), UniProt P37173). In words: HTRF probe displacement assay, HIS-TGFβR2 WT. The format is binding. The note with it: 1 nM HIS-TGFβR2 WT, 1 hour at room temperature, read-out: TGFBR2WT IC50. The protocol: as §1
Setting [3] is: Mus musculus, MPC-11, inhibition of TGF-β signaling.

For orientation: IC50 means the concentration that gives 50% inhibition.

Counter-ions that a name gives are not always drawn.

Chain of HIS-TGFβR1 T204D (P36897 34-503 T204D): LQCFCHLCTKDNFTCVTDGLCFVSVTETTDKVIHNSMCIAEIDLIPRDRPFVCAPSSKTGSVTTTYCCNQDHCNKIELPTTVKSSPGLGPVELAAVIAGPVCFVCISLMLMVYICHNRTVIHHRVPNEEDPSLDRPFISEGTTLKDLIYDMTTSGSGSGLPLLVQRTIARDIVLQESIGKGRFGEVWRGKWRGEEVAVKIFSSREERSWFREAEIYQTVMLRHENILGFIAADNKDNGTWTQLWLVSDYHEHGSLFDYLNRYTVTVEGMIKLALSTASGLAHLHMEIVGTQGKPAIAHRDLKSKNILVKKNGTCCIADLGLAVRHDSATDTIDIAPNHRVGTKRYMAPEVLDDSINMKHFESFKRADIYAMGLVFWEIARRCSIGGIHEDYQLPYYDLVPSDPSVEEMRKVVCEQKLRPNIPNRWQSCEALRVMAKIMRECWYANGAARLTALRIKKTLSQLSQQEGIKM
Chain of HIS-TGFβR2 WT (P37173 23-567): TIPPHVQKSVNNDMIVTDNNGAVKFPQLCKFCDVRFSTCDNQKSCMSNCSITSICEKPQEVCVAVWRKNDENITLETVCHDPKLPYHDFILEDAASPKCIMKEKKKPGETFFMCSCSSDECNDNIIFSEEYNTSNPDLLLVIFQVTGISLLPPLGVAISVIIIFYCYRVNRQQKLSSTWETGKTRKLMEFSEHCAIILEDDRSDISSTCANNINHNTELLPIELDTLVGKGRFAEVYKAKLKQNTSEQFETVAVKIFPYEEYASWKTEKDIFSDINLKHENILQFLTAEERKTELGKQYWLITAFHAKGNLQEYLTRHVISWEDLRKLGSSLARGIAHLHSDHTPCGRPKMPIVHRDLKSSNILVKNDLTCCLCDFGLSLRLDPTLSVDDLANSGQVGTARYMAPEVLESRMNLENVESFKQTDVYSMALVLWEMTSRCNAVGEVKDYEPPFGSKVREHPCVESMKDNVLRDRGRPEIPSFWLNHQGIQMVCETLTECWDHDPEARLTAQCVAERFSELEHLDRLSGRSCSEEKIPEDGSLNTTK

On to `Nc1ncnc2ccc(-c3cccnc3-c3cccc(F)n3)cc12` [Compound 11A, 6-(6′-fluoro-[2,2′-bipyridin]-3-yl)quinazolin-4-aminium 2,2,2-trifluoroacetate], for which the IC50 in assay [1] (setting [3]) is 1170 nM; in assay [2], 229 nM.

As to `N#Cc1cnc2ccc(-c3cccnc3-c3ccccn3)cn12` [Compound 7, 6-([2,2′-Bipyridin]-3-yl)imidazo[1,2-a]pyridine-3-carbonitrile], half-maximal inhibition in assay [2] (IC50) required 8510 nM.

As for `Cc1cccc(-c2ncccc2-c2ccc3ncc(C(N)=O)n3c2)n1` [Compound 6, 6-(6′-Methyl-[2,2′-bipyridin]-3-yl)imidazo[1,2-a]pyridine-3-carboxamide], the IC50 in assay [1] (setting [3]) was determined as 53.8 nM; in assay [2] it was 28.6 nM.

As for `Cc1cccc(-c2ncccc2-c2ccc3ncnc(N)c3c2)n1` [Compound 2B, 6-(6′-methyl-[2,2′-bipyridin]-3-yl)quinazolin-4-aminium formate], in assay [1] (inhibition of TGF-β signaling, formate), the IC50 turned out to be 112 nM.

Take `Cc1cccc(-c2ncccc2-c2ccc3ncc(C#N)n3c2)n1` [Compound 3, 6-(6′-Methyl-[2,2′-bipyridin]-3-yl)imidazo[1,2-a]pyridine-3-carbonitrile]: the IC50 came to 1710 nM in assay [1] (setting [3]) and 734 nM in assay [2].

As to `Cc1cccc(-c2ncccc2-c2ccn3ncnc3c2)n1` [Compound 5, 7-(6′-Methyl-[2,2′-bipyridin]-3-yl)-[1,2,4]triazolo[1,5-a]pyridine], the IC50 in assay [1] (setting [3]) is 1070 nM; in assay [2], 280 nM.

In the case of `Cc1cccc(-c2ncccc2-c2ccnc3ccccc23)n1` [Compound 1, 4-(6′-Methyl-[2,2′-bipyridin]-3-yl)quinolone], the IC50 in assay [1] (setting [3]) turned out to be 10600 nM; in assay [2], 19700 nM.

As for `Cc1cccc(-c2ncccc2-c2ccc3ncnn3c2)n1` [Compound 4, 6-(6′-Methyl-[2,2′-bipyridin]-3-yl)-[1,2,4]triazolo[1,5-a]pyridine], the IC50 in assay [1] (setting [3]) worked out at 501 nM; in assay [2], 215 nM.

For the molecule `c1ccc(-c2ncccc2-c2ccc3ncnn3c2)nc1` [Compound 8, 6-([2,2′-Bipyridin]-3-yl)-[1,2,4]triazolo[1,5-a]pyridine], the half-maximal inhibitory concentration (IC50) was 23600 nM in assay [1] (setting [3]) and 8060 nM in assay [2].

As to `N#Cc1cnc2ccc(-c3cccnc3-c3cccc(OCc4ccccc4)n3)cn12` [Compound 38, 6-(6′-(benzyloxy)-[2,2′-bipyridin]-3-yl)imidazo[1,2-a]pyridine-3-carbonitrile], the results for the IC50 at HIS-TGFβR1 T204D and on HIS-TGFβR2 WT were 1920 nM and > 15 µM, respectively.

Regarding `Cc1ccc(-c2ncccc2-c2ccc3ncc(C(N)=O)n3n2)nc1` [Compound 56, 6-(5′-methyl-[2,2′-bipyridin]-3-yl)imidazo[1,2-b]pyridazine-3-carboxamide], the IC50 was 5300 nM on HIS-TGFβR1 T204D and > 15 µM at HIS-TGFβR2 WT.

For the molecule `O=C(O)c1cnn2ccc(-c3cccnc3-c3cccc(C(F)F)n3)nc12` [Compound 135, 5-(6′-(difluoromethyl)-[2,2′-bipyridin]-3-yl)pyrazolo[1,5-a]pyrimidine-3-carboxylic acid], the IC50 was 107 nM on HIS-TGFβR1 T204D and > 15 µM on HIS-TGFβR2 WT.

With `Cc1cccc(-c2ncccc2-c2ccc3nc(C(N)=O)cn3c2)n1` [Compound 80, 6-(6′-methyl-[2,2′-bipyridin]-3-yl)imidazo[1,2-a]pyridine-2-carboxamide], the IC50 was 1020 nM on HIS-TGFβR1 T204D and > 15 µM on HIS-TGFβR2 WT.

In the case of `Nc1ncnc2ccc(-c3cccnc3-c3ccccn3)cc12` [Compound 12A, 6-([2,2′-bipyridin]-3-yl)quinazolin-4-aminium formate], the IC50 is 5480 nM in assay [1] (setting [3]) and 1310 nM in assay [2].

Take `NC(=O)c1cnc2ccc(-c3cc(F)cnc3-c3cccc(C(F)F)n3)cn12` [Compound 84, 6-(6′-(difluoromethyl)-5-fluoro-[2,2′-bipyridin]-3-yl)imidazo[1,2-a]pyridine-3-carboxamide]: the IC50 is 1 nM at HIS-TGFβR1 T204D and > 15 µM on HIS-TGFβR2 WT.

For the molecule `Cc1cccc(-c2ncccc2-c2ccc3ncnc(N)c3c2)n1` [Compound 2A, 6-(6′-methyl-[2,2′-bipyridin]-3-yl)quinazolin-4-aminium 2,2,2-trifluoroacetate], the IC50 came out at 251 nM in assay [1] (inhibition of TGF-β signaling, 2,2,2-trifluoroacetate) and 129 nM in assay [2].

Take `NC(=O)c1cn2cc(-c3cccnc3-c3cccc(C(F)(F)F)n3)ccc2n1` [Compound 79, 6-(6′-(trifluoromethyl)-[2,2′-bipyridin]-3-yl)imidazo[1,2-a]pyridine-2-carboxamide]: the IC50 is 15000 nM at HIS-TGFβR1 T204D and > 15 µM on HIS-TGFβR2 WT.

Regarding `Cc1cccc(-c2nc(C(F)(F)F)ccc2-c2ccc3ncc(C(N)=O)n3c2)n1` [Compound 90, 6-(6′-methyl-6-(trifluoromethyl)-[2,2′-bipyridin]-3-yl)imidazo[1,2-a]pyridine-3-carboxamide], the IC50 at HIS-TGFβR1 T204D is 84 nM; on HIS-TGFβR2 WT, > 15 µM.

`Cc1nc(-c2ncccc2-c2ccc3ncc(C#N)n3c2)ccc1F` [Compound 15, 6-(5′-fluoro-6′-methyl-[2,2′-bipyridin]-3-yl)imidazo[1,2-a]pyridine-3-carbonitrile]: the IC50 was 10 nM at HIS-TGFβR1 T204D and > 15 µM on HIS-TGFβR2 WT.

`Cc1cccc(-c2ncccc2-c2ccc3ncc(C(=O)NC4CC4)n3n2)n1` [Compound 75, N-cyclopropyl-6-(6′-methyl-[2,2′-bipyridin]-3-yl)imidazo[1,2-b]pyridazine-3-carboxamide]: the IC50 on HIS-TGFβR1 T204D was 25 nM; on HIS-TGFβR2 WT it was > 15 µM.

Regarding `Cc1cccc(-c2ncc(F)cc2-c2ccc3ncc(C#N)n3c2)n1` [Compound 81, 6-(5-fluoro-6′-methyl-[2,2′-bipyridin]-3-yl)imidazo[1,2-a]pyridine-3-carbonitrile], the IC50 at HIS-TGFβR1 T204D was 16 nM; on HIS-TGFβR2 WT it was > 15 µM.

`Cc1cccc(-c2nccc(CO)c2-c2ccc3ncc(C#N)n3c2)n1` [Compound 92, 6-(4-(hydroxymethyl)-6′-methyl-[2,2′-bipyridin]-3-yl)imidazo[1,2-a]pyridine-3-carbonitrile]: the IC50 was 487 nM at HIS-TGFβR1 T204D and > 15 µM at HIS-TGFβR2 WT.

For the molecule `N#Cc1cnc2ccc(-c3cc(F)cnc3-c3cccc(C(F)F)n3)cn12` [Compound 83, 6-(6′-(difluoromethyl)-5-fluoro-[2,2′-bipyridin]-3-yl)imidazo[1,2-a]pyridine-3-carbonitrile], the figures for the IC50 on HIS-TGFβR1 T204D and at HIS-TGFβR2 WT were 22 nM and > 15 µM, respectively.

Regarding `NC(=O)c1cnc2ccc(-c3cccnc3-c3ccccn3)cn12` [Compound 9, 6-([2,2′-Bipyridin]-3-yl)imidazo[1,2-a]pyridine-3-carboxamide], the IC50 was 281 nM in assay [1] (setting [3]) and 119 nM in assay [2].

The values above are taken from patent publication US9981944B2, “GDF-8 inhibitors” (Rigel Pharmaceuticals, Inc., priority 2015, dated 2018).
